Assay results: US8486996B2, “Aroylfuranes and aroylthiophenes” (Basilea Pharmaceutica AG, priority 2006, dated 2013)
Like-named read-outs stand apart in the source and are kept apart here.

How the values were obtained:
[1] = tested on: tumor cells; assay: MTS proliferation assay (72 h read-out); format: cell-based
Method in brief: (§1)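 Viability was read by MTS absorbance at 492 nm after 3 h with reagent. Before that, cells plated a day earlier at 1.5×10^3–10^4 per well had been incubated with test compound at final concentrations of 0.001–10 μM for 72 h; activity is given as category scores A–D.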

[2] = MTS proliferation assay (72 h read-out); format: cell-based; settings: Homo sapiens, MRC5 cells
Method in brief: as §1

[3] = tested on: H460; assay: Colony Forming Units (read-out 6 days), H460; format: cell-based, human; settings: Homo sapiens, NCI-H460, 144 h, colonies containing more than 30 cells, read-out: Colony Forming Units, score based on IC50, H460
Method in brief: (§2)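 Cells seeded at 100-150 per well and left to attach for 48 h before compound addition (0.001 μM-3 μM; DMSO controls). Incubated 5-7 days under culture conditions; colonies of more than 30 cells counted by microscope.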

[4] = tested on: tumor cells; assay: Mitochondrial membrane potential, JC-1 (read-out 48 h); format: cell-based; settings: JC-1, 48 h
Method in brief: (§3)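 Tumor cells were treated with test compounds (adherent cells after 24 h of attachment, suspension cells immediately), medium holding up to 5% DMSO. After 48 h, JC-1 (2-5 μg/ml in added medium) was applied for 30 min. Fluorescence microscopy (FITC/TRITC filters) scored the fraction of cells with dissipated mitochondrial membrane potential as categories A-D.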

[5] = as above; format: cell-based; settings: PBL, JC-1, 48 h
Method in brief: as §3

[6] = tested on: tumor cells; assay: Hoechst 33342 nuclear staining (48 h read-out); format: cell-based
Method in brief: (§4)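 Adherent cells pre-spread 24 h before dosing, suspension cells dosed at seeding; compounds at 0.001 μM-10 μM final, 48 h at culture conditions. Hoechst 33342 (2-5 μg/ml) added for 30 min, then fluorescence microscopy scoring of apoptotic nuclear fraction and apoptosis-specific morphology, reported as scores A-D.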

[7] = Hoechst 33342 nuclear staining (48 h read-out); format: cell-based
Method in brief: as §4

[8] = tested on: HeLa; assay: Colony Forming Units (read-out 6 days), HeLa; format: cell-based, human; settings: Homo sapiens, 144 h, colonies containing more than 30 cells, read-out: Colony Forming Units, score based on IC50, HeLa
Method in brief: as §2

[9] = Homo sapiens, HT-1080, HT1080 cells, read-out: MTS proliferation assay IC50, HT1080
[10] = Homo sapiens, HeLa cells, read-out: MTS proliferation assay IC50, HeLa
[11] = Homo sapiens, Jurkat cells, read-out: MTS proliferation assay IC50, Jurkat
[12] = Jily cells, read-out: MTS proliferation assay IC50, Jily
[13] = Homo sapiens, HeLa cells, read-out: Mitochondrial membrane potential (read-out 48 h) HeLa
[14] = Homo sapiens, Jurkat cells, read-out: Mitochondrial membrane potential (read-out 48 h) Jurkat
[15] = Homo sapiens, MCF7 cells, read-out: Mitochondrial membrane potential (read-out 48 h) MCF7
[16] = Jily cells, read-out: Mitochondrial membrane potential (read-out 48 h) Jily
[17] = Homo sapiens, HeLa cells, read-out: Hoechst 33342 nuclear staining EC50, HeLa
[18] = Homo sapiens, Jurkat cells, read-out: Hoechst 33342 nuclear staining EC50, Jurkat
[19] = Jily cells, read-out: Hoechst 33342 nuclear staining EC50, Jily
[20] = Homo sapiens, MRC5 cells, read-out: Hoechst 33342 nuclear staining EC50, MRC5
[21] = PBL, read-out: Hoechst 33342 nuclear staining EC50, PBL

Row | Structure (SMILES) | IC50 [1, 9] | IC50 [1, 10] | IC50 [1, 11] | IC50 [1, 12] | IC50 [2] | IC50 [3] | melting point | EC50 [4, 13] | EC50 [4, 14] | EC50 [4, 15] | EC50 [4, 16] | EC50 [5] | EC50 [6, 17] | EC50 [6, 18] | EC50 [6, 19] | EC50 [7, 20] | IC50 [8] | EC50 [7, 21]
1 | CC(C)Oc1ccccc1C(=O)c1oc2ccc(Cl)cc2c1N [Example 9] | 10 to 100 nM | 100 to 1000 nM | 10 to 100 nM | 10 to 100 nM | 100 to 1000 nM | 10 to 100 nM | 110 °C | 100 to 1000 nM | 10 to 100 nM | 100 to 1000 nM | 100 to 1000 nM | > 1000 nM | 100 to 1000 nM | 10 to 100 nM | 100 to 1000 nM | 100 to 1000 nM | 10 to 100 nM | –
2 | CCOc1ccc(OC)cc1C(=O)c1oc2ccc(Cl)cc2c1N [Example 12] | < 10 nM | 10 to 100 nM | < 10 nM | < 10 nM | < 10 nM | < 10 nM | 124 to 125 °C | 10 to 100 nM | < 10 nM | 10 to 100 nM | < 10 nM | > 1000 nM | < 10 nM | < 10 nM | < 10 nM | 100 to 1000 nM | 10 to 100 nM | –
3 | CCCOc1ccc(OC)cc1C(=O)c1oc2ccc(Cl)cc2c1N [Example 14] | 10 to 100 nM | 10 to 100 nM | < 10 nM | < 10 nM | 10 to 100 nM | 10 to 100 nM | 95 to 97 °C | 10 to 100 nM | 10 to 100 nM | 10 to 100 nM | 10 to 100 nM | > 1000 nM | 10 to 100 nM | 10 to 100 nM | 10 to 100 nM | 10 to 100 nM | 10 to 100 nM | –
4 | COc1ccc(OC(C)C)c(C(=O)c2oc3ccc(Cl)cc3c2N)c1 [Example 15] | 10 to 100 nM | 100 to 1000 nM | 10 to 100 nM | 10 to 100 nM | 10 to 100 nM | 10 to 100 nM | 131 to 132 °C | 100 to 1000 nM | 10 to 100 nM | 100 to 1000 nM | 100 to 1000 nM | > 1000 nM | 100 to 1000 nM | 10 to 100 nM | 10 to 100 nM | 100 to 1000 nM | 10 to 100 nM | –
5 | CCOc1ccc(F)cc1C(=O)c1oc2ccc(Cl)cc2c1N [Example 18] | < 10 nM | < 10 nM | < 10 nM | < 10 nM | < 10 nM | < 10 nM | 132 to 134 °C | < 10 nM | < 10 nM | < 10 nM | < 10 nM | > 1000 nM | < 10 nM | < 10 nM | < 10 nM | < 10 nM | < 10 nM | > 1000 nM
6 | CCOc1ccc(F)cc1C(=O)c1oc2nc(C)ccc2c1N [Example 29] | < 10 nM | 10 to 100 nM | < 10 nM | < 10 nM | 10 to 100 nM | 10 to 100 nM | 152 to 156 °C | 10 to 100 nM | 10 to 100 nM | 10 to 100 nM | 10 to 100 nM | > 1000 nM | 10 to 100 nM | 10 to 100 nM | 10 to 100 nM | 100 to 1000 nM | 10 to 100 nM | > 1000 nM
7 | CCOc1ccc(F)cc1C(=O)c1sc2ncc(N)cc2c1N [Example 116] | 100 to 1000 nM | 100 to 1000 nM | 10 to 100 nM | 10 to 100 nM | 100 to 1000 nM | – | 80 °C | 100 to 1000 nM | 10 to 100 nM | > 1000 nM | 10 to 100 nM | > 1000 nM | 10 to 100 nM | 10 to 100 nM | 10 to 100 nM | 10 to 100 nM | – | > 1000 nM
8 | CCOc1ccccc1C(=O)c1sc2ncc(N)cc2c1N [Example 117] | > 1000 nM | > 1000 nM | > 1000 nM | > 1000 nM | > 1000 nM | – | 116 °C | > 1000 nM | > 1000 nM | > 1000 nM | > 1000 nM | > 1000 nM | > 1000 nM | > 1000 nM | > 1000 nM | > 1000 nM | – | > 1000 nM
9 | CCOc1ccc(C)cc1C(=O)COc1ccc(Cl)cc1C#N [Example 144] | 100 to 1000 nM | 100 to 1000 nM | 10 to 100 nM | 10 to 100 nM | 100 to 1000 nM | – | 144 to 146 °C | 100 to 1000 nM | 10 to 100 nM | 100 to 1000 nM | – | > 1000 nM | 100 to 1000 nM | 10 to 100 nM | 10 to 100 nM | 100 to 1000 nM | – | > 1000 nM
